Drawing on paper PMC5814837 (Pest Management Science, 2017), this text covers IC50 for three compounds.

Experiment [1] addresses mitochondrial succinate dehydrogenase (SDH) (Zymoseptoria tritici, UniProt F9X9V6+F9XH52+O42772, N33T/N34T/V106L). In words: biochemical. The conditions noted are these: IC50.
Experiment [2] has as its target mitochondrial succinate dehydrogenase (SDH) (Zymoseptoria tritici, UniProt F9X9V6+F9XH52+O42772, N33T/N34T). Description: biochemical. Conditions: IC50.

As a reminder, the IC50 is the midpoint of a concentration-inhibition curve. Low values mean greater potency, high ones weaker potency. `Cn1cc(C(=O)Nc2ccc(F)cc2-c2ccc(Cl)c(Cl)c2)c(C(F)F)n1` [Bixafen, bixafen]: the IC50 in experiment [1] came to 44 ± 11 nM; in experiment [2] it was 31 ± 17 nM.

`O=C(NCCc1ncc(C(F)(F)F)cc1Cl)c1ccccc1C(F)(F)F` [Fluopyram, fluopyram]: the IC50 was found to be 12400 ± 1320 nM in experiment [1] and 134 ± 67 nM in experiment [2].

As to `Cc1cc(OC(C)C)ccc1C(=O)C(C)(C)NC(=O)c1sccc1C` [Isofetamid, N‐[1,1‐dimethyl‐2‐(4‐isopropoxy‐o‐tolyl)‐2‐oxoethyl]‐3‐methylthiophene‐2‐carboxamide], the IC50 in experiment [1] was above 32000 nM; in experiment [2], 46 ± 9 nM.
